The record followed here is US10912815B2, “Inhibitors of mitochondrial fission and methods of use thereof” (The Board of Trustees of the Leland Stanford Junior …, priority 2011, dated 2021).

The target in one test is Recombinant protein Drp1 (Homo sapiens, UniProt O00429). In words: In vitro GTPase assay, recombinant Drp1. The class given is biochemical. As to the method:
First, mitochondrial fission inhibitor constructs were tested to determine what, if any, effects each peptide had on enzyme (GTPase) activity. Recombinant protein Drp1, Mfn1, OPA1 or dynamin-1 (25 ng) was incubated with the indicated modulator peptides for 30 min. GTPase activity was assayed in vitro using a GTPase assay kit (Innova Biosciences, Littleton, USA, or Novus Biologicals, Littleton, Colo.) according to manufacturer's instructions.

Test [1] deals with Drp1. In words: Drp1 translocation to mitochondria in SH-SY5Y cells (western blot of mitochondrial fractions). Format: cell-based, human. As to the method: Cultured human SH-SY5Y neuronal cells were treated with peptide P110 (1 μM) for 30 min prior to 1 hr incubation in the absence or presence of MPP+(1-methyl-4-phenylpyridinium, a specific mitochondrial complex I inhibitor) (2 mM) or CCCP (carbonyl cyanide m-chloro phenyl hydrazone) (10 μM). Western blot analysis of mitochondrial fractions was determined by the indicated antibodies. VDAC was used as a loading control.
In another experiment, mitochondria were isolated from SH-SY5Y neuronal cells exposed to MPP+ in the absence or presence of P110. Mitochondrial fractions were subjected to Western blot analysis. The levels of Drp1, Fis1, Mff, Mfn1 (mitofisinl) and OPA1 in the mitochondrial fractions were determined. Voltage-dependent […] (VDAC), a marker of mitochondria, was used as internal loading controls. Quantitative data from three independent experiments are provided a the histogram, with data shown as mean±S.E (FIG. 3D).

For test [2], the system named is Drp1. The experiment in a line: Confocal imaging of Drp1 localization on mitochondria in SH-SY5Y cells. Format: cell-based, human. To be noted: SH-SY5Y exposed to MPP+ or CCCP, FIG. 3G. The method, then:
(§1) The effects of MPP+ or CCCP on translocation of Drp1 in the absence and presence of P110 was measured using confocal microscopy. Cultured SH-SY5Y cells in black 96-well plate were treated with Drp1 peptide inhibitor P110 (1 μM) 30 min prior to treatment of MPP+ (2 mM) or CCCP (5 uM). After 2 hrs of treatment, cells were stained with MITOSOX™ (red mitochondrial superoxide indicator) (5 uM, for 10 min, mitochondrial ROS) or TMRM (0.5 uM, for 20 min, MMP) at 37° C. For total ROS detection, cells were treated with MPP+ or CCCP for 24 hrs. ROS level was measured by CM-H2DCFDA (1 μM for 30 min, Invitrogen). Cells were washed with PBS for three times. The detection was performed in a fluorescence microplate reader (Tecan, Infinite M1000) according to manufacturer's instructions. Measurements were normalized to the cell number counted using Hoechst staining.
The data, quantitated by Image J software, is provided in a histogram FIG. 3G.

Test [3] deals with SH-SY5Y cells. In words: Mitochondrial superoxide production in SH-SY5Y cells (MITOSOX red). The settings on record: peptide 1 μM, MPP+ 2 mM 2 hrs, FIG. 6A, FIG. 7. The class given is cell-based, human. As to the method:
as §1
SH-SY5Y cells were treated with P110 (1 μM) followed by incubation of MPP+ (2 mM) for 2 hrs. Mitochondrial superoxide production was determined using the mitochondrial superoxide indicator, MITOSOX™ red (red mitochondrial superoxide indicator). Nuclei were stained with Hoechst (blue). This experiment included the analysis of P110 alanine-scan analogs, further determine the contribution of each of the amino acids of the P110 fission inhibitor peptide sequence on the bioactivity of the peptide.

The subject of test [4] is isolated mouse liver mitochondria with Drp1 recombinant protein. The experiment in a line: Cytochrome c levels in isolated mouse liver mitochondria incubated with Drp1. The settings on record: 8 min of Drp1 incubation, FIG. 6D top. Format: biochemical. The method, then: Mitochondrial membrane potential was also determined using TMRM (tetramethylrhodamine methylester). Fifty μg of mitochondria were incubated with recombinant Drp1 (50 ng) followed by incubation with TMRM (0.5 μM) in the presence or absence of P110 (1 μM) or NAC (2.5 mM). Fluoresence detection was performed using black 96-well plates in a fluorescence microplate reader at 560 nm excitation and 690 nm emission and potential was assessed by quenching of the fluorescent signal. The data are presented as mean±S.E. of percentage relative to control mitochondria from three independent experiments (FIG. 6B, #, p<0.05 vs. control cells; *, p<0.05; **, P<0.01 vs. MPP+- or CCCP-treated cells). Isolated mouse liver mitochondria (50 μg) were incubated with Drp1 recombinant protein (50 ng) in the presence or absence of P110 (1 μM). A kinetic change of mitochondrial superoxide production was determined by using MITOSOX™ (red mitochondrial superoxide indicator). […] Mitochondrial membrane potential of isolated mouse liver mitochondria was determined by TMRM, as described above, in the indicated groups. […] Protein levels of cytochrome c in the mitochondria were determined by western blot analysis with anti-cytochrome c antibodies in the indicated groups (insert, FIG. 6D). Total ROS production was determined by staining SH-SY5Y cells with CM2HDCFA (1 μM […] at 37° C.) in the indicated groups. […]

The test system of test [5] is SH-SY5Y cells. The experiment in a line: Apoptosis of SH-SY5Y cells by annexin V staining. The settings on record: 8 hours after MPP+ exposure, FIG. 9B. Format: cell-based, human. As to the method:
Apoptosis was determined by annexin V staining 8 hours after MPP+ exposure. The number of apoptotic cells was expressed as mean±S.E. of percentage relative to total number of cells.

The next test deals with Drp1/Fis1 interaction (Homo sapiens, UniProt O00429). The experiment in a line: Drp1-Fis1 interaction in cultured SH-SY5Y neuronal cells (crosslink, immunoprecipitation). The class given is cell-based. Details: endogenous in cells; host or cells: SH-SY5Y. The settings on record: peptides 1 μM, FIG. 2E. As to the method:
SH-SY5Y cells were treated with Drp1 peptides P110, P109, P112 or TAT47-57 only (1 μM). Because the interaction between Drp1 and Fis1 is transient and dynamic, cells were treated with the crosslinker, DSP, (0.75 mM for 30 min), as described in a previous study (Yoon et al., 2003, Mol Cell Biol 23:5409-5420). The cells were lysed in total cell lystes (50 mM Tris-HCl, pH 7.5, containing 150 mM NaCl, 1% Triton X-100, and protease inhibitor). Immunoprecipitates were analyzed by SDS-PAGE and immunoblotting with antibodies to Drp1, VDAC, and Fis1. VDAC was used as a loading control

“Also recorded” adds a separate entry of the source. No end group written: not given here.

Sequence of Recombinant protein Drp1 (O00429 1-710 isoform O00429-3): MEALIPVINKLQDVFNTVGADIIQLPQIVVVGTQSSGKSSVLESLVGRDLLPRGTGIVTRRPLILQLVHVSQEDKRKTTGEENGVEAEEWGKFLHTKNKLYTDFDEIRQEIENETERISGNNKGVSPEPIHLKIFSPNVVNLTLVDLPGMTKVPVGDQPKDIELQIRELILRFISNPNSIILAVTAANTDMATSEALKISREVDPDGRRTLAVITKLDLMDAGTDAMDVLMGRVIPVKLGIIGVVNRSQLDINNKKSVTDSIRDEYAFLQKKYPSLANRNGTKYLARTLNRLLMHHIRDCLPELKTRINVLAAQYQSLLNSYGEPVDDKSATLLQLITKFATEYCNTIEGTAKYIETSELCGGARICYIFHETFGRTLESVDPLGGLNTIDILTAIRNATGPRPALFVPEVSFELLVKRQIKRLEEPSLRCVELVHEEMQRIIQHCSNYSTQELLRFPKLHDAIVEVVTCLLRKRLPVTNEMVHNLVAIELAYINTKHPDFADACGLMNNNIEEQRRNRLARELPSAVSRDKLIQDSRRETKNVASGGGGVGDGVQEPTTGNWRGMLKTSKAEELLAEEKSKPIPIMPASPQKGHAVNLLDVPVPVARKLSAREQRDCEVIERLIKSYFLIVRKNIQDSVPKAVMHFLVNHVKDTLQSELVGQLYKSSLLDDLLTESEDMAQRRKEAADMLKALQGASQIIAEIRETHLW
Sequence of Drp1/Fis1 interaction (O00429 whole entry): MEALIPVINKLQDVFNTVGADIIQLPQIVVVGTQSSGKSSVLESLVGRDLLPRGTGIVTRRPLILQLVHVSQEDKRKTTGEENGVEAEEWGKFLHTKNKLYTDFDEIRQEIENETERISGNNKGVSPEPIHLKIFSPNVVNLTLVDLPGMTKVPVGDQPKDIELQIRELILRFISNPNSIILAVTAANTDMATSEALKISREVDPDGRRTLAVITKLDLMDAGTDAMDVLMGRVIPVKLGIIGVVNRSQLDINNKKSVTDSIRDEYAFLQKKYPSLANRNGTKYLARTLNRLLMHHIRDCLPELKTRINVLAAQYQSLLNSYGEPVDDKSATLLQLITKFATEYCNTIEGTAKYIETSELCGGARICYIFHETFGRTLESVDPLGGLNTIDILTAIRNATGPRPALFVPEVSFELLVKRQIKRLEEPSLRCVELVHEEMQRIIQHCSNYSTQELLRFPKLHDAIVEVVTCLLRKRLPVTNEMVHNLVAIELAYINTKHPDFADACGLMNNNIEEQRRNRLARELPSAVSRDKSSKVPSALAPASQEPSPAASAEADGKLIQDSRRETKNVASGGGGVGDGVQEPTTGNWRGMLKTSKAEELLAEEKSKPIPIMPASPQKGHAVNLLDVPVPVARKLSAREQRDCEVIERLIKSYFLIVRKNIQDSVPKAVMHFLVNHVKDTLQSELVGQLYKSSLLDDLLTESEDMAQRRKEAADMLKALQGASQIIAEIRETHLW

Turning to “RRRQRRKKRGYGGDLLPRGS (RRRQRRKKRGYGGDLLPRGS-NH2) [P110, TAT47-57 carrier, GG linker, Drp1 region 110 (GTPase domain) peptide DLLPRGS; C-terminus C(O)-NH2]”, the “specifically inhibited Drp1 GTPase activity” value with Recombinant protein Drp1 (in vitro GTPase assay, n=3, first statement of b271) was determined as 30%. Also, in the test with Recombinant protein Drp1 (recombinant Drp1 25 ng, 30 min incubation with peptide, FIG. 2A), the “inhibition in the GTPase activity of recombinant Drp1” value is recorded as 50%. Further, the “levels of Drp1 associated with the mitochondrial fractions under stress” value in the test on Drp1 [1] (P110 1 μM 30 min before MPP+, CCCP, H2O2 or rotenone, FIG. 3A, 3B) is reported as “abolished the increased levels of Drp1”. The “cellular level and distribution of other mitochondrial dynamics-related proteins (MFN-1/2, OPA1, Fis1)” value in the test on Drp1 [1] (SH-SY5Y, MPP+, FIG. 3C, 3D) is listed as “did not affect”. Further, the “reduction of MPP+-induced translocation of Drp1 from cytosol to the mitochondria” value in the test on Drp1 [1] (SH-SY5Y, MPP+, p<0.01, n=3, FIG. 3C, 3D) is “more than 60%”. In the test on Drp1 [2], the “co-localization of Drp1 with mitochondria” value is “greatly reduced”. The “MPP+-induced production of mitochondrial superoxide” value with SH-SY5Y cells [3] is on record as “abolished”. Also, the “cytochrome c release from the mitochondria” value in test [4] is recorded as “inhibited cytochrome c release”. In addition, in the test on SH-SY5Y cells [5], the “number of apoptotic cells (annexin V)” value is reported as “greatly reduced”. Besides, in the test with Drp1/Fis1 interaction, the “Drp1-Fis1 interaction in cultured SH-SY5Y neuronal cells” value was “inhibited interaction of Drp1 and Fis1; also recorded: Inhibition”.
